In patent publication US11473088B2, “Method of treating cancer and method of sensitizing cancer cells to the action of chemotherapeutic agents via growth hormone receptor antagonists or knock down” (Ohio University, priority 2016, dated 2022):
“Also recorded” adds a separate entry of the source. Where two headings read alike, the source gives them in different places. Values belong to the molecule of their own block, whether it stands above or below them.

Columns and labels:
MALME-3M cells [1] = assay: ABC transporter RNA (RT-qPCR) following drug treatment; type: cell-based, human; conditions: for Efflux Pumps (expression level change, p < 0.05): ABC-transporter pumps with significantly down-regulated RNA expressions: 24 hr. drug exposure, GHR-siRNA vs scr-siRNA transfected
Experimental: (§1) Transfection was performed using siLentFect lipid reagent (Biorad #170-3360, Hercules, Calif.) following the manufacturer's protocol. […] Media was changed after 24 hours. RNA levels were analyzed 48 hours post transfection while protein levels were analyzed at 60 hours post-transfection. For drug treatment, drugs at the specified concentrations noted above were added to the cells 48 hours post-transfection and treated for 24 hours prior to quantitation of RNA expressions.
(§2) RNA extraction, RT-qPCR, and protein extraction were performed as described in Example 1, above.

MDA-MB-435 cells [2] = assay: as above; type: cell-based, human; conditions: 24 hr. drug exposure, GHR-siRNA vs scr-siRNA transfected
Experimental: as §1, §2

SK-MEL-28 cells [3] = assay: as above; type: cell-based, human; conditions: for Efflux Pumps (expression level change, p < 0.05): ABC-transporter pumps with significantly down-regulated RNA expressions: 24 hr. drug exposure, GHR-siRNA vs scr-siRNA transfected
Experimental: as §1, §2

SK-MEL-5 cells [4] = assay: as above; type: cell-based, human; conditions: 24 hr. drug exposure, GHR-siRNA vs scr-siRNA transfected
Experimental: as §1, §2

MDA-MB-435 cells [5] = assay: as above; type: cell-based, human; conditions: 24 hr sub-EC50 drug, 50 ng/mL hGH
SK-MEL-5 cells [6] = assay: as above; type: cell-based, human
four melanoma cell lines = assay: Cell proliferation / EC50 determination; conditions: read-out: EC50 ranges for the four melanoma cell lines
Experimental: (§4) A 1% (w/v) resazurin (Sigma-Aldrich #R7017) solution in 1× PBS was made and filter-sterilized. The final concentration of resazurin in the assay was 0.004%. Inside the proliferating cells, mildly fluorescent blue resazurin is reduced to a bright pink fluorescent product called resorufin (stable for 4 hours), which allows for a quantitative measure of the percentage of proliferating cells. In all cases, cells were incubated at 37° C. in 5% CO2 for 45-60 min. for adequate sensitivity of detection. Briefly, cells were seeded at 10,000 cells/cm^2 into 96-well plates and transfected as described above. The resazurin assay was performed 60 hours after transfection (unless specified otherwise) and resorufin absorbance was measured at 570 nm (reference wavelength=600 nm) using Spectramax250 (Molecular Devices, Sunnyvale, Calif.) and SoftmaxPro software.
More specifically, SK-MEL-28 cells (FIG. 8A, panel 1), MALME-3M cells (FIG. 8A, panel 2), MDA-MB-435 cells (FIG. 8A, panel 3), and SK-MEL-5 cells (FIG. 8A, panel 4) were treated with increasing doses of hGH for 48 hr. and cell proliferation was estimated using a resazurin-based metabolic assay.
For treatment of melanoma cells, the following five anti-tumor compounds were obtained from the sources mentioned: cisplatin (Calbiochem #232120, Darmstadt, Germany), doxorubicin (Sigma Aldrich #D-1515, St. Louis, Mo.), oridonin (Sigma-Aldrich #O-9639, St. Louis, Mo.), Paclitaxel (Sigma-Aldrich #C-7191), and vemurafenib/PLX4032 (ApexBio #A-3004, Houston, Tex.). […] In the subsequent experiments, the following drug concentrations were used unless specified otherwise: cisplatin (0.5 μM), doxorubicin (10 nM), oridonin (0.5 μM), paclitaxel (1 nM), vemurafenib (2 nM). Treatments were performed for 24 hours starting 48 hours post-transfection with siRNA.

SK-MEL-28 cells [7] = assay: RT-qPCR time course after doxorubicin addition; type: cell-based, human; conditions: 188 nM doxorubicin
Experimental: (§3) Following treatments, cells were lysed, and RNA extraction was performed using IBI Tri-isolate kit (IBI), following manufacturer's protocol. RT-qPCR was performed as described previously.

SK-MEL-28 cells [8] = assay: EC50 of doxorubicin (cell viability); type: cell-based; conditions: Homo sapiens, Example 3, read-out: EC50 of doxorubicin against SK-MEL-28 cells
Experimental: Cell viability, following treatments, was performed using Invitrogen's PrestoBlue cell viability assay system. As described previously, it is a resazurin based assay which is reduced to resorufin (absorption at 570 nm) by the reducing environment of metabolically viable cells. It was performed in a 96-well system as described previously.

MALME-3M cells [9] = assay: Cell proliferation (resazurin) assay; type: cell-based, human; conditions: Homo sapiens, EC50 levels (cisplatin 10 μM, paclitaxel 5 nM), 24 hr, with and without siRNA mediated KD of GHR
Experimental: For hGH treatment, 16 hours after seeding (or 24 hours post-transfection), the cells were serum-starved for 2 hours in serum-free growth media, and hGH (phosphate buffered saline was used as control where applicable) was added at the noted concentrations (0-, 5-, 50-, and 150 ng/ml). Cells were subsequently incubated for 24 hours before evaluating RNA levels. Recombinant hGH was purchased from Antibodies Online (#ABIN2017921, Atlanta, Ga.).
On the other hand, a pronounced drop in proliferation levels in all the cell lines was seen when GHR was knocked down. […] Cell proliferation was estimated using resazurin-based metabolic assay. […] Averages of at least four independent experiments performed in quadruplicate were taken [*, p<0.05, Students t-test]. The results may indicate that human melanoma cells utilize GH-GHR interaction to drive aggressive tumor phenotypes.
To determine this, and referring now to FIGS. 35A-35D, changes in amounts of calcein retained inside cells following treatment with calcein-AM ester was analyzed by the fluorescence readout from intracellular calcein. Increased abundance of transporter pumps is reflected by decreased levels of intracellular calcein. […] Assays were performed 48 hr. post-transfection with either scr-siRNA or GHR-siRNA. […] SK-MEL-28 (FIG. 35C) and MALME-3M (FIG. 35D) cells were exposed to DMSO (vehicle), or 10 um cisplatin (Cis), or 5 nM paclitaxel (Pac) for 24 hr. Treatments were done 48 hr. post-transfection with either scr-siRNA (scr) or GHR-siRNA (GHR). Mean of three independent experiments performed in triplicate was taken. [*, p<0.05, Students t test, n=3]

SK-MEL-28 cells [10] = assay: Cell proliferation (resazurin) assay; type: cell-based; conditions: Homo sapiens, EC50 levels (cisplatin 10 μM, paclitaxel 5 nM), 24 hr, with and without siRNA mediated KD of GHR
Experimental: as §4

[11] = tested on: B16F10 mouse melanoma cells; assay: ABC-transporter RNA in bGH treated cells (RT-qPCR); type: cell-based
Experimental: as §3
GH upregulates ABC-transporter expression in mouse melanoma B16F10 cells in vitro and in vivo: B16F10 mouse melanoma cells were treated with 50 or 500 ng/mL bGH for 6, 24, 48 or 72 hr and the changes in the RNA levels of specific multidrug exporter pumps were analyzed over time and GH dose. […] RNA extracted from B16F10 tumors grown in GHRKO or bGH mice were analyzed for the above ABC-transporters. In bGH mice, the tumor cells and resulting tumors were exposed in vivo to high endogenous GH and high IGF-1; while in GHRKO mice, the tumor cells and resulting tumors were exposed in vivo to high GH but low IGF1.

[12] = 24-hour drug, presence vs absence of 50 ng/mL GH
[13] = 24 hr sub-EC50 drug, 50 ng/mL hGH

EC50 (four melanoma cell lines; Homo sapiens): 2 to 20 nM
Molecule: CCCS(=O)(=O)Nc1ccc(F)c(C(=O)c2c[nH]c3ncc(-c4ccc(Cl)cc4)cc23)c1F [vemurafenib]

EC50 (four melanoma cell lines; Homo sapiens): 2 to 8 nM
Molecule: CC(=O)O[C@H]1C(=O)[C@@]2(C)[C@H]([C@H](OC(=O)c3ccccc3)[C@]3(O)C[C@H](OC(=O)[C@H](O)[C@@H](NC(=O)c4ccccc4)c4ccccc4)C(C)=C1C3(C)C)[C@]1(OC(C)=O)CO[C@@H]1C[C@@H]2O [paclitaxel, Paclitaxel]
inhibition at 0.005 µM (MALME-3M cells [9]): > 90%
inhibition at 0.005 µM (SK-MEL-28 cells [10]): > 90%
ABCB8 RNA level in response to drug (MALME-3M cells [1]; [13]): significant upregulation
ABCC2 RNA level in response to drug (MALME-3M cells [1]; [13]): significantly increased
Efflux Pumps (expression level change, p < 0.05): ABC-transporter pumps with significantly down-regulated RNA expressions (MALME-3M cells [1]): ABCB8, ABCC1, ABCG1
Efflux Pumps (expression level change, p < 0.05): ABC-transporter pumps with significantly down-regulated RNA expressions (MDA-MB-435 cells [2]): ABCB5, ABCB8, ABCG1, ABCG2
ABCG2 RNA expression on drug exposure in presence of GH (SK-MEL-28 cells [3]; [12]): upregulation
ABCB5 RNA level in response to drug (SK-MEL-28 cells [3]; [13]): significantly upregulated
ABCC1 RNA level in response to drug (SK-MEL-28 cells [3]; [13]): particularly upregulated
ABCC2 RNA level in response to drug (SK-MEL-28 cells [3]; [13]): significantly increased
ABCG1 RNA level in response to drug (SK-MEL-28 cells [3]; [13]): surged
ABCG2 RNA level in response to drug (SK-MEL-28 cells [3]; [13]): significantly upregulated
Efflux Pumps (expression level change, p < 0.05): ABC-transporter pumps with significantly down-regulated RNA expressions (SK-MEL-28 cells [3]): ABCB5, ABCC1, ABCG1, ABCG2
Efflux Pumps (expression level change, p < 0.05): ABC-transporter pumps with significantly down-regulated RNA expressions (SK-MEL-5 cells [4]): ABCB8, ABCC1, ABCC2
ABCG1 RNA level in response to drug (MDA-MB-435 cells [5]): surged
ABCB5 RNA expression on drug exposure in presence of GH (SK-MEL-5 cells [6]; [12]): increase
ABCB8 RNA level in response to drug (SK-MEL-5 cells [6]; [13]): significant upregulation
ABCC1 RNA level in response to drug (SK-MEL-5 cells [6]; [13]): particularly upregulated
ABCC2 RNA level in response to drug (SK-MEL-5 cells [6]; [13]): significantly increased

EC50 (four melanoma cell lines; Homo sapiens): 2000 to 8000 nM
Molecule: C=C1C(=O)[C@]23[C@H](O)[C@H]1CC[C@H]2[C@@]12CO[C@]3(O)[C@@H](O)[C@@H]1C(C)(C)CC[C@@H]2O [oridonin]

Further lines, the molecule ahead of its results:

Molecule: N.N.[Cl][Pt][Cl] [cisplatin]
ABCB8 RNA expression on drug exposure in presence of GH (MALME-3M cells [1]; [12]): increase
Efflux Pumps (expression level change, p < 0.05): ABC-transporter pumps with significantly down-regulated RNA expressions (MALME-3M cells [1]): ABCB1
Efflux Pumps (expression level change, p < 0.05): ABC-transporter pumps with significantly down-regulated RNA expressions (MDA-MB-435 cells [2]): ABCB1, ABCB8, ABCC2, ABCG1,; also recorded: ABCG2
ABCB1 RNA level in response to drug (SK-MEL-28 cells [3]; [13]): Significant upregulation
ABCB5 RNA level in response to drug (SK-MEL-28 cells [3]; [13]): significantly upregulated
ABCG1 RNA level in response to drug (SK-MEL-28 cells [3]; [13]): surged
Efflux Pumps (expression level change, p < 0.05): ABC-transporter pumps with significantly down-regulated RNA expressions (SK-MEL-28 cells [3]): ABCB1, ABCB5, ABCB8, ABCG1
Efflux Pumps (expression level change, p < 0.05): ABC-transporter pumps with significantly down-regulated RNA expressions (SK-MEL-5 cells [4]): ABCB1, ABCC1, ABCC2, ABCG2
ABCB1 RNA level in response to drug (MDA-MB-435 cells [5]): Significant upregulation
ABCC2 RNA level in response to drug (MDA-MB-435 cells [5]): significantly increased
ABCG1 RNA level in response to drug (MDA-MB-435 cells [5]): surged
ABCG2 RNA level in response to drug (MDA-MB-435 cells [5]): significantly upregulated
ABCB5 RNA expression on drug exposure in presence of GH (SK-MEL-5 cells [6]; [12]): increase
ABCB8 RNA expression on drug exposure in presence of GH (SK-MEL-5 cells [6]; [12]): increase
ABCG2 RNA expression on drug exposure in presence of GH (SK-MEL-5 cells [6]; [12]): increase
EC50 (four melanoma cell lines): 3000 to 15000 nM

Molecule: COc1cccc2c1C(=O)c1c(O)c3c(c(O)c1C2=O)C[C@@](O)(C(=O)CO)C[C@@H]3O[C@H]1C[C@H](N)[C@H](O)[C@H](C)O1 [doxorubicin]
ABCC2 RNA expression on drug exposure in presence of GH (MALME-3M cells [1]; [12]): increase
ABCG1 RNA expression on drug exposure in presence of GH (MALME-3M cells [1]; [12]): increase
ABCB8 RNA level in response to drug (MALME-3M cells [1]; [13]): significant upregulation
ABCG1 RNA level in response to drug (MALME-3M cells [1]; [13]): surged
Efflux Pumps (expression level change, p < 0.05): ABC-transporter pumps with significantly down-regulated RNA expressions (MALME-3M cells [1]): ABCB8, ABCC1, ABCG1, ABCG2
Efflux Pumps (expression level change, p < 0.05): ABC-transporter pumps with significantly down-regulated RNA expressions (MDA-MB-435 cells [2]): ABCB1, ABCB5, ABCC2, ABCG1
ABCB1 RNA expression on drug exposure in presence of GH (SK-MEL-28 cells [3]; [12]): upregulation
ABCB8 RNA expression on drug exposure in presence of GH (SK-MEL-28 cells [3]; [12]): upregulation
ABCB5 RNA level in response to drug (SK-MEL-28 cells [3]; [13]): significantly upregulated
ABCG1 RNA level in response to drug (SK-MEL-28 cells [3]; [13]): surged
ABCG2 RNA level in response to drug (SK-MEL-28 cells [3]; [13]): significantly upregulated
Efflux Pumps (expression level change, p < 0.05): ABC-transporter pumps with significantly down-regulated RNA expressions (SK-MEL-28 cells [3]): ABCB8, ABCC1, ABCG1, ABCG2
Efflux Pumps (expression level change, p < 0.05): ABC-transporter pumps with significantly down-regulated RNA expressions (SK-MEL-5 cells [4]): ABCB1, ABCB8, ABCG2
rise in ABCB1 RNA (SK-MEL-28 cells [7]; 12-hr): 4 fold
rise in ABCG1 RNA (SK-MEL-28 cells [7]; 12-hr): 8 fold
transcript levels of CDH2, VIM and SNAI1 (SK-MEL-28 cells [7]; 12-hr after addition): increased significantly
GER levels (RNA) (SK-MEL-28 cells [7]; by 24-hr): concomitant rise
rise in autocrine GH transcript (SK-MEL-28 cells [7]; by 24-hr): > 2 fold
RNA levels of ABCB8, ABCC1 and ABCC4 drug efflux pumps (SK-MEL-28 cells [7]; end of 24 hr): significantly higher levels
increase in CDH2 transcript (SK-MEL-28 cells [7]; end of 24 hr): > 3.5 fold
increase in SNAI1 transcript (SK-MEL-28 cells [7]; end of 24 hr): > 2 fold
reduction in the epithelial marker CDH1/E-cadherin (SK-MEL-28 cells [7]; end of 24 hr): > 8 fold
EC50 (SK-MEL-28 cells [8]): 188 nM
ABCB5 RNA level in response to drug (MDA-MB-435 cells [5]): significantly upregulated
ABCB8 RNA level in response to drug (MDA-MB-435 cells [5]): significant upregulation
ABCB5 RNA expression on drug exposure in presence of GH (SK-MEL-5 cells [6]; [12]): increase
ABCB8 RNA level in response to drug (SK-MEL-5 cells [6]; [13]): significant upregulation
ABCG2 RNA level in response to drug (SK-MEL-5 cells [6]; [13]): significantly upregulated
EC50 (four melanoma cell lines; Homo sapiens): 25 to 100 nM

B1: bGH: growth hormone (bGH) added at 50 or 500 ng/mL to B16F10 mouse melanoma cells (protein, UniProt P01246 27-217, looked up)
Somatotropin: AFPAMSLSGLFANAVLRAQHLHQLAADTFKEFERTYIPEGQRYSIQNTQVAFCFSETIPAPTGKNEAQQKSDLELLRISLLLIQSWLGPLQFLSRVFTNSLVFGTSDRVYEKLKDLEEGILALMRELEDGTPRAGQILKQTYDKFDTNMRSDDALLKNYGLLSCFRKDLHKTETYLRVMKCRRFGEASCAF
RNA expression of Abcb1, Abcg1 and Abcg2 ([11]; 50 and 500 ng/mL bGH, 24, 48, and 72 hr): significantly higher RNA expression
levels of Abcb8, Abcc1, Abcc2, and Abcc4 vs untreated controls ([11]; any dose or time-point in vitro): not significantly different
